Earlier results, collected in patent US12691176B2, “Ionic nanovesicle suspension and biocide prepared therefrom” (priority 2015, dated 2026).

How the values were obtained:
bacteria = conditions: very low concentrations

For Polyaminopropyl biguanide [PAPB], the fungicidal activity (fungi) is given as “fungicidal” and the bactericidal concentration (bacteria) is given as 10 mg/L.
